What follows are molecules tested against PI3Kβ (Homo sapiens (Human), UniProt P42338) (assay: PI3K isoform TR-FRET enzymatic assay (PI3Kβ)). Settings: 2× Km ATP, 30 minutes at 25° C.
Sequence of PI3Kβ (P42338 whole entry, canonical isoform): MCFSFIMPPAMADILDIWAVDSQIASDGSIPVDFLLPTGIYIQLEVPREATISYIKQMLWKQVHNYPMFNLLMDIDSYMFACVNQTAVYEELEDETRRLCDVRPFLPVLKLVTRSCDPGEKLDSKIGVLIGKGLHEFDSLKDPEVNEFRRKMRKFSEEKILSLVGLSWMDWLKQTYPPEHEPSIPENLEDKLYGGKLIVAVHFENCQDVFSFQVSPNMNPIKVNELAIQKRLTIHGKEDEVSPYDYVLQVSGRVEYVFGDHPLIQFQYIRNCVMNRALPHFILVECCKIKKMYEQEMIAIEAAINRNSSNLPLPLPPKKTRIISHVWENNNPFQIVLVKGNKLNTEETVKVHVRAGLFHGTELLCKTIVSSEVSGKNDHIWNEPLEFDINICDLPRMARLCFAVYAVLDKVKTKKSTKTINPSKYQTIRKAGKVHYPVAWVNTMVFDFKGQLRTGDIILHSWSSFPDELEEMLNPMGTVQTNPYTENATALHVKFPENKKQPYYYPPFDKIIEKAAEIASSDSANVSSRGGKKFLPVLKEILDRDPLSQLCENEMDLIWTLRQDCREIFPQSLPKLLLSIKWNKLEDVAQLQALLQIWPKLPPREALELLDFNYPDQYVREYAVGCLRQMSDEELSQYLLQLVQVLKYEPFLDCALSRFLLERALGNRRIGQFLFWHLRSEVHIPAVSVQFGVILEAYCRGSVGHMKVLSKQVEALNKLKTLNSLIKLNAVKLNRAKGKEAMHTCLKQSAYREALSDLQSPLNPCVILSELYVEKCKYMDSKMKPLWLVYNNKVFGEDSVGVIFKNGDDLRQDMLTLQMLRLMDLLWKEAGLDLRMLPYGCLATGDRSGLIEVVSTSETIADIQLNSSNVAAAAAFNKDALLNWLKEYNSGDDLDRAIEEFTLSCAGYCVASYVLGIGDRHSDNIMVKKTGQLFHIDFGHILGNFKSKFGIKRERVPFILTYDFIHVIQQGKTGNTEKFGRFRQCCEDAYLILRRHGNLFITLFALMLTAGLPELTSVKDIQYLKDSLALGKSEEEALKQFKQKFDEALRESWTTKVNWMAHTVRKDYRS
Sequence of PI3Kβ (P27986 whole entry partner, canonical isoform): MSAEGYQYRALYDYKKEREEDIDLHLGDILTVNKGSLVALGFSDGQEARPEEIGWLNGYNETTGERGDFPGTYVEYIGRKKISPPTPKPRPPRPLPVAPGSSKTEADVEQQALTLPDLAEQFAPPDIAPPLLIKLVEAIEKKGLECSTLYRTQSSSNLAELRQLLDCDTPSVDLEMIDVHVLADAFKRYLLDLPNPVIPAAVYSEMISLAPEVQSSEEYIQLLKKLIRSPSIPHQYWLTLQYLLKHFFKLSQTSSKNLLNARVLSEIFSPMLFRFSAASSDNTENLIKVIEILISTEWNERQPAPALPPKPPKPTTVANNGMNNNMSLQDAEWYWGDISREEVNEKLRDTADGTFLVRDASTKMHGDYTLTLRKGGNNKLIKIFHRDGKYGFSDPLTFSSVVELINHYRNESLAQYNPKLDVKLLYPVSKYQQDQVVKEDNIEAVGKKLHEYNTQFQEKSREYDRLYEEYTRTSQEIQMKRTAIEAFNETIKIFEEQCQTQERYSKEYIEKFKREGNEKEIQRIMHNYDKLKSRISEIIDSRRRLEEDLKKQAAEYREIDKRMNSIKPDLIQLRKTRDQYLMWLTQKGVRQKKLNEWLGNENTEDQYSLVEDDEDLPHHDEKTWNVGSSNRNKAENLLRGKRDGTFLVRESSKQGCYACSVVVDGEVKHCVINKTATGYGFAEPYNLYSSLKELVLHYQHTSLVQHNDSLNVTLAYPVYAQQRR
Type: biochemical
Procedure, shortened: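 IC50 came from four-parameter dose-response fits, normalized between DMSO and 1 μM wortmannin controls. The read-out was TR-FRET (615/665 nm) of PIP3 displacing fluorescent PIP3 from Europium GRP-1 after 10 mM EDTA termination. Compounds were incubated with purified heterodimeric PI3Kβ for 30 min at 25° C.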
For `Cc1cnc2c(Cl)cccc2c1-n1c(C)nc2c(-c3nnc[nH]3)cc(N3CCOCC3)cc21` [Example 68, 4-[3-(8-chloro-3-methylquinolin-4-yl)-2-methyl-7-(4H-1,2,4-triazol-3-yl)benzimidazol-5-yl]morpholine], the IC50 was 0.008 µM.
For `Cc1cc(-n2c(C)nc3c(-c4nnc[nH]4)cc(N4CCOCC4)cc32)c2ccccc2n1` [Example 69, 4-[2-methyl-3-(2-methylquinolin-4-yl)-7-(4H-1,2,4-triazol-3-yl)benzimidazol-5-yl]morpholine], the IC50 was 0.017 µM.
For `Cc1nc2c(Cl)cccc2c(-n2c(C)nc3c(-c4nnc[nH]4)cc(N4CCOCC4)cc32)c1C` [Example 70, 4-[3-(8-chloro-2,3-dimethylquinolin-4-yl)-2-methyl-7-(4H-1,2,4-triazol-3-yl)benzimidazol-5-yl]morpholine], the IC50 was 0.036 µM.
With `CCc1c(C)nc2ccccc2c1-n1cnc2c(-c3nnc[nH]3)cc(N3CCOCC3)cc21` [Example 71, 4-[3-(3-ethyl-2-methylquinolin-4-yl)-7-(4H-1,2,4-triazol-3-yl)benzimidazol-5-yl]morpholine] the IC50 was 0.023 µM.
`CCc1nc2ccccc2c(-n2cnc3c(-c4nnc[nH]4)cc(N4CCOCC4)cc32)c1C` [Example 72, 4-[3-(2-ethyl-3-methylquinolin-4-yl)-7-(4H-1,2,4-triazol-3-yl)benzimidazol-5-yl]morpholine] gave an IC50 of 0.025 µM.
`Cc1cc(-n2c(C)nc3c(-c4nc(C)n[nH]4)cc(N4CCOCC4)cc32)c2ccccc2n1` [Example 73, 4-[2-methyl-3-(2-methylquinolin-4-yl)-7-(3-methyl-1H-1,2,4-triazol-5-yl)benzimidazol-5-yl]morpholine] gave an IC50 of 0.078 µM.
Work on `Cc1n[nH]c(-c2cc(N3CCOCC3)cc3c2nc(C)n3-c2c(C)cnc3ccccc23)n1` [Example 74, 4-[2-methyl-3-(3-methylquinolin-4-yl)-7-(3-methyl-1H-1,2,4-triazol-5-yl)benzimidazol-5-yl]morpholine] yielded an IC50 of 0.062 µM.
With `CCc1c(C)nc2ccccc2c1-n1cnc2c(-c3nc(C)n[nH]3)cc(N3CCOCC3)cc21` [Example 75, 4-[3-(3-ethyl-2-methylquinolin-4-yl)-7-(3-methyl-1H-1,2,4-triazol-5-yl)benzimidazol-5-yl]morpholine] the IC50 was 0.029 µM.
`CCc1nc2ccccc2c(-n2c(C)nc3c(-c4nc(C)n[nH]4)cc(N4CCOCC4)cc32)c1C` [Example 76, 4-[3-(2-ethyl-3-methylquinolin-4-yl)-2-methyl-7-(3-methyl-1H-1,2,4-triazol-5-yl)benzimidazol-5-yl]morpholine] showed an IC50 of 0.029 µM.
`Cc1cc(-n2c(C)nc3c(-c4nc(C)n[nH]4)cc(N4CCOCC4)cc32)c2cccc(C(F)(F)F)c2n1` [Example 77, 4-[2-methyl-7-(3-methyl-1H-1,2,4-triazol-5-yl)-3-[2-methyl-8-(trifluoromethyl)quinolin-4-yl]benzimidazol-5-yl]morpholine] gave an IC50 of 0.097 µM.
Molecule `Cc1n[nH]c(-c2cc(N3CCOCC3)cc3c2nc(C)n3-c2c(C)cnc3c(Cl)cccc23)n1` [Example 78, 4-[3-(8-chloro-3-methylquinolin-4-yl)-2-methyl-7-(3-methyl-1H-1,2,4-triazol-5-yl)benzimidazol-5-yl]morpholine] has an IC50 of 0.027 µM.
`Cc1cc(-n2c(C)nc3c(-c4nc(C)n[nH]4)cc(N4CCOCC4)cc32)c2ccc(F)cc2n1` [Example 79, 4-[3-(7-fluoro-2-methylquinolin-4-yl)-2-methyl-7-(3-methyl-1H-1,2,4-triazol-5-yl)benzimidazol-5-yl]morpholine] gave an IC50 of 0.11 µM.
`CCc1nc2c(F)cccc2c(-n2c(C)nc3c(-c4nc(C)n[nH]4)cc(N4CCOCC4)cc32)c1C` [Example 80, 4-[3-(2-ethyl-8-fluoro-3-methylquinolin-4-yl)-2-methyl-7-(3-methyl-1H-1,2,4-triazol-5-yl)benzimidazol-5-yl]morpholine] was tested, and the IC50 was 0.061 µM.
With `Cc1nc2c(-c3nnc[nH]3)cc(N3CCOCC3)cc2n1-c1ccnc2cccc(F)c12` [Example 81, 4-[3-(5-fluoroquinolin-4-yl)-2-methyl-7-(4H-1,2,4-triazol-3-yl)benzimidazol-5-yl]morpholine] the IC50 was 0.011 µM.
For `Cc1nc2c(-c3nnc[nH]3)cc(N3CCOCC3)cc2n1-c1ccnc2c(C(F)F)cccc12` [Example 82, 4-[3-[8-(difluoromethyl)quinolin-4-yl]-2-methyl-7-(4H-1,2,4-triazol-3-yl)benzimidazol-5-yl]morpholine], the IC50 was 0.009 µM.
For `Cc1cccc2nccc(-n3c(C)nc4c(-c5nnc[nH]5)cc(N5CCOCC5)cc43)c12` [Example 83, 4-[2-methyl-3-(5-methylquinolin-4-yl)-7-(4H-1,2,4-triazol-3-yl)benzimidazol-5-yl]morpholine], the IC50 was 0.019 µM.
`Cc1nc2c(-c3nnc[nH]3)cc(N3CCOCC3)cc2n1-c1ccnc2cccc(Cl)c12` [Example 84, 4-[3-(5-chloroquinolin-4-yl)-2-methyl-7-(4H-1,2,4-triazol-3-yl)benzimidazol-5-yl]morpholine] showed an IC50 of 0.017 µM.
`Cc1nc2c(-c3nnc[nH]3)cc(N3CCOCC3)cc2n1-c1ccnc2cccc(C(F)F)c12` [Example 85, 4-[3-[5-(difluoromethyl)quinolin-4-yl]-2-methyl-7-(4H-1,2,4-triazol-3-yl)benzimidazol-5-yl]morpholine] gave an IC50 of 0.28 µM.
In the case of `Cc1nc2c(-c3nnc[nH]3)c(F)c(N3CCOCC3)cc2n1-c1ccnc2c(Cl)cccc12` [Example 86, 4-[3-(8-chloroquinolin-4-yl)-6-fluoro-2-methyl-7-(4H-1,2,4-triazol-3-yl)benzimidazol-5-yl]morpholine], the IC50 is reported as 0.016 µM.
Work on `Cc1nc2c(-c3nnc[nH]3)cc(N3CCOCC3)cc2n1-c1ccnc2c(Cl)ccc(F)c12` [Example 87, 4-[3-(8-chloro-5-fluoroquinolin-4-yl)-2-methyl-7-(4H-1,2,4-triazol-3-yl)benzimidazol-5-yl]morpholine] yielded an IC50 of 0.014 µM.
`FC(F)c1cc(-n2cnc3c(-c4nnc[nH]4)cc(N4CCOCC4)cc32)c2cccc(Cl)c2n1` [Example 88, 4-[3-[8-chloro-2-(difluoromethyl)quinolin-4-yl]-7-(4H-1,2,4-triazol-3-yl)benzimidazol-5-yl]morpholine] showed an IC50 of 0.004 µM.
Molecule `Cc1nc2c(-c3nnc[nH]3)cc(N3CCOCC3)cc2n1-c1ccnc2c(C#N)cccc12` [Example 89, 4-[2-methyl-6-morpholin-4-yl-4-(4H-1,2,4-triazol-3-yl)benzimidazol-1-yl]quinoline-8-carbonitrile] has an IC50 of 0.012 µM.
In the case of `Cc1nc2c(-c3nnc[nH]3)cc(N3CCOCC3)cc2n1-c1ccnc2cc(F)ccc12` [Example 90, 4-[3-(7-fluoroquinolin-4-yl)-2-methyl-7-(4H-1,2,4-triazol-3-yl)benzimidazol-5-yl]morpholine], the IC50 is reported as 0.011 µM.
`Cc1nc2c(-c3nnc[nH]3)cc(N3CCOCC3)c(F)c2n1-c1ccnc2c(Cl)cccc12` [Example 91, 4-[3-(8-chloroquinolin-4-yl)-4-fluoro-2-methyl-7-(4H-1,2,4-triazol-3-yl)benzimidazol-5-yl]morpholine] showed an IC50 of 0.019 µM.
`Cc1nnc(-c2cc(N3CCOCC3)cc3c2nc(C)n3-c2ccnc3c(C(F)F)cccc23)[nH]1` [Example 92, 4-[3-[8-(difluoromethyl)quinolin-4-yl]-2-methyl-7-(5-methyl-4H-1,2,4-triazol-3-yl)benzimidazol-5-yl]morpholine] was tested, and the IC50 was 0.046 µM.
Molecule `Cc1nnc(-c2cc(N3CCOCC3)cc3c2nc(C)n3-c2ccnc3cccc(C)c23)[nH]1` [Example 93, 4-[2-methyl-3-(5-methylquinolin-4-yl)-7-(5-methyl-4H-1,2,4-triazol-3-yl)benzimidazol-5-yl]morpholine] has an IC50 of 0.29 µM.
`Cc1nnc(-c2cc(N3CCOCC3)cc3c2nc(C)n3-c2ccnc3c(Cl)ccc(F)c23)[nH]1` [Example 94, 4-[3-(8-chloro-5-fluoroquinolin-4-yl)-2-methyl-7-(5-methyl-4H-1,2,4-triazol-3-yl)benzimidazol-5-yl]morpholine] gave an IC50 of 0.026 µM.
`Fc1cccc2c(-n3cnc4c(-c5nnc[nH]5)cc(N5CCOCC5)cc43)ccnc12` [Example 95, 4-[3-(8-fluoroquinolin-4-yl)-7-(4H-1,2,4-triazol-3-yl)benzimidazol-5-yl]morpholine] showed an IC50 of 0.006 µM.
`Fc1ccc(Cl)c2c(-n3cnc4c(-c5nnc[nH]5)cc(N5CCOCC5)cc43)ccnc12` [Example 96, 4-[3-(5-chloro-8-fluoroquinolin-4-yl)-7-(4H-1,2,4-triazol-3-yl)benzimidazol-5-yl]morpholine] was tested, and the IC50 was 0.024 µM.
With `Cc1nc2c(-c3nnc[nH]3)cc(N3CCOCC3)cc2n1-c1c(Cl)cnc2c(Cl)cccc12` [Example 97, 4-[3-(3,8-dichloroquinolin-4-yl)-2-methyl-7-(4H-1,2,4-triazol-3-yl)benzimidazol-5-yl]morpholine] the IC50 was 0.012 µM.
In the case of `CCc1nc2c(-c3nnc[nH]3)cc(N3CCOCC3)cc2n1-c1c(Cl)cnc2c(Cl)cccc12` [Example 98, 4-[3-(3,8-dichloroquinolin-4-yl)-2-ethyl-7-(4H-1,2,4-triazol-3-yl)benzimidazol-5-yl]morpholine], the IC50 is reported as 0.013 µM.
With `Cc1nc2c(-c3nnc[nH]3)cc(N3CCOC[C@@H]3C)cc2n1-c1ccnc2c(Cl)cccc12` [Example 99, (3S)-4-[3-(8-chloroquinolin-4-yl)-2-methyl-7-(4H-1,2,4-triazol-3-yl)benzimidazol-5-yl]-3-methylmorpholine] the IC50 was 0.033 µM.
`Cc1nc2c(-c3nnc[nH]3)cc(N3CCOC[C@H]3C)cc2n1-c1ccnc2c(Cl)cccc12` [Example 100, (3R)-4-[3-(8-chloroquinolin-4-yl)-2-methyl-7-(4H-1,2,4-triazol-3-yl)benzimidazol-5-yl]-3-methylmorpholine] was tested, and the IC50 was 0.043 µM.
Molecule `Cc1nc2c(-c3nnc[nH]3)cc(N3CCOCC3)cc2n1-c1ccnc2c(Cl)cccc12` [Example 101, 4-[3-(8-chloroquinolin-4-yl)-2-methyl-7-(4H-1,2,4-triazol-3-yl)benzimidazol-5-yl]morpholine] has an IC50 of 0.007 µM.
With `Clc1cccc2c(-n3c(C4CCCO4)nc4c(-c5nnc[nH]5)cc(N5CCOCC5)cc43)ccnc12` (centres unmarked) [Example 102, 4-[3-(8-chloroquinolin-4-yl)-2-(oxolan-2-yl)-7-(4H-1,2,4-triazol-3-yl)benzimidazol-5-yl]morpholine] the IC50 was 0.021 µM.

Source: patent US10214519B2, “Phosphatidylinositol 3-kinase inhibitors” (Gilead Sciences, Inc., priority 2016, dated 2019)
